Measured values reported in patent US6562829B1, “Treatment of hepatic cirrhosis” (Hadasit Medical Research Services & Development Co., Ltd., priority 1997, dated 2003).
Where two headings read alike, the source gives them in different places.

Experiments:
stellate cells [1] = assay: Smooth muscle actin in stellate cells, TAA treatment experiment (Example 5); assay type: in vivo, rat; settings: Halofuginone administered after induction of liver cirrhosis by TAA
From the text: (§1) Liver cirrhosis was induced with TAA as previously described. […] These cells are located in the subendothelial space, between the apical membrane of hepatocytes and the ablumenal side of the sinusoidal endothelial cells. The intimate association between the stellate cells and the neighboring cell types facilitates intercellular transport and paracrine stimulation by soluble mediators. In injured liver, these cells acquire features of myofibroblasts and express smooth muscle cytoskeletal markers such as smooth muscle actin. […] The experimental method was as follows.
(§2) Rats were treated with TAA alone or TAA with Halofuginone as previously described in Example 4 for the use of Halofuginone as both a prophylactic treatment and a treatment for existing liver cirrhosis. Tissue samples were also prepared as previously described, except that rather than undergoing staining for collagen, the samples were incubated with smooth muscle actin antibodies in a 1:1000 dilution, with detection performed by the Histomouse SP kit according to the instructions of the manufacturer (Zymed Laboratories Inc., San Francisco, Calif., USA).

[2] = tested on: dimethylnitrosamine-induced hepatic fibrosis; assay: Dimethylnitrosamine-induced severe liver fibrosis in rats (Example 1); assay type: in vivo
Procedure: The experimental method was as follows. Male Sprague-Dawley rats were divided into four groups. Two groups were injected intraperitoneally with 1% dimethylnitrosamine in saline for three consecutive days per week for 3 weeks, at a dose of 1 ml/kg body weight. This dosage regimen will induce severe liver fibrosis. The other two groups of rats, control rats, were injected with saline. One group of dimethylnitrosamine-treated rats and one control group were fed Halofuginone in the diet at a dose of 5 mg/kg weight of diet, starting three days before the dimethylnitrosamine injections were administered. At the end of the experimental period, the rats were sacrificed and the liver was removed and weighed.
(§3) Liver samples were taken for histological examination. Briefly, the tissue samples were collected into phosphate-buffered saline (PBS) and fixed overnight in 4% paraformaldehyde in PBS at 4° C. Serial 5 μm sections were prepared after the samples had been dehydrated in graded ethanol solutions, cleared in chloroform and embedded in Paraplast. Differential staining of collagenous and non-collagenous proteins was performed with 0.1% Sirius red and 0.1% fast green as a counter-stain in picric acid. This procedure stains collagen red [Gascon-Barre, M., et al., J. Histochem. Cytochem., 37:377-381, 1989].
Liver samples were then hybridized with a probe for rat collagen α1(I) expression. For hybridization with the genetic probe, the sections were deparafinized in xylene, rehydrated through a graded series of ethanol solutions, rinsed in distilled water for 5 minutes and then incubated in 2×SSC at 70° C. for 30 minutes. The sections were then rinsed in distilled water and treated with pronase, 0.125 mg/ml in 50 mM Tris-HCl, 5 mM EDTA, pH 7.5, for 10 minutes. After digestion, the slides were rinsed with distilled water, post-fixed in 10% formalin in PBS and blocked in 0.2% glycine. After blocking, the slides were rinsed in distilled water, rapidly dehydrated through graded ethanol solutions and air-dried for several hours. Before hybridization, the 1600 bp rat collagen α1(I) insert was cut out from the original plasmid, pUC18, and inserted into the pSafyre plasmid. The sections were then hybridized with this probe after digoxigenin-labeling [M. Pines et al., Matrix Biology, 14:765-71, 1996].

[3] = tested on: TAA-induced liver cirrhosis; assay type: in vivo, rat
Procedure: (§4) Male Sprague-Dawley rats were divided into three groups. Two groups were injected intraperitoneally with TAA twice weekly for 12 weeks, at a dose of 200 mg/kg body (Muller, A. et al., Exp. Pathol., 34:229-236, 1988; Hori, N. et al., Dig. Dis. Sci., 38:2195-2202, 1993). […] The other group of rats, control rats, was injected with saline. One group of TAA-treated rats and one control group were fed Halofuginone in the diet at a dose of 5 ppm.
For this experiment, rats in group 1 received only Halofuginone (n=4); rats in group 2 received TAA alone without Halofuginone (n=6); and rats in group 3 received TAA with Halofuginone (n=6). Groups 1and 3 received Halofuginone starting three days before the TAA injections were administered. At the end of the experimental period, the rats were sacrificed and the liver was removed and weighed.
as §3
In addition, the livers were scored in a double-blind evaluation, on a scale of 0-4, for the appearance of fibrotic tissue.

collagen type I = settings: as demonstrated in U.S. Pat. No. 5,449,678; cited from earlier work
stellate cells [4] = assay: Smooth muscle actin in stellate cells, TAA prevention experiment (Example 5); assay type: in vivo, rat; settings: prophylactic administration of Halofuginone with TAA
From the text: as §1, §2

[5] = tested on: mild dimethylnitrosamine-induced fibrosis; assay: Mild dimethylnitrosamine-induced fibrosis in rat liver (Example 2); assay type: in vivo; settings: 4 weeks
Procedure: The specific experimental method used was similar to that of Example 1, except that the dimethylnitrosamine-treated rats were only given 0.25% dimethylnitrosamine in saline, a much lower dose than that given in Example 1 above. Also, the duration of treatment was longer before the rats were sacrificed: 4 weeks as opposed to 3 weeks in Example 1.
The expression of the collagen α1(I) gene was measured as described in Example 1 above. For hydroxyproline analysis, liver samples were hydrolyzed for 22 hours at 110° C. with 6 N HCl. Nitrogen was determined after Kjeldahl digestion by the spectrophotometric procedure using an autoanalyzer as described by Krom [M. D. Krom, Analyst, 105:305-16, 1980]. The collagen-unique amino acid hydroxyproline from the same hydrolysate was determined by amino acid analysis (Biotronik LC 5000, Germany) after post-column derivatization on a cation exchange column (BTC 2710, Biotronik). The results are expressed as the percentage of collagen in total liver proteins.

[6] = tested on: TAA-induced liver cirrhosis; assay: Treatment of existing TAA-induced liver cirrhosis in rats (Example 4); assay type: in vivo, rat
Procedure: as §4, §3
In addition, the livers were scored in a double-blind evaluation, on a scale of 0-4, for the appearance of fibrotic tissue. […]

[7] = tested on: bile duct ligation-induced fibrosis; assay type: in vivo, rat
From the text: In addition to dimethylnitrosamine-induced liver fibrosis, a second model of liver fibrosis in rats is available. […] Tox., 15:449-453, 1995]. Thus, the particular advantage of the bile duct ligation model is that any protective treatments must directly protect the liver from the pathological changes induced by fibrosis, rather than indirectly altering the effects of the exogeneous substance which is used to cause liver fibrosis in the animal model. The experimental method was as follows.
Male Wistar rats, weighing 200-250 g, were divided into four experimental groups with 3 rats in each group. […] It should be noted that all animals in the first two groups underwent sham operations which included all steps of the actual surgical procedure, with the exception of the bile duct ligation itself. The third group had bile duct ligation surgery and was not given Halofuginone. The fourth group had bile duct ligation surgery and was given Halofuginone. The actual surgical procedure was essentially similar to that reported in the literature [Kountaras, J. et al., Br. J. Exp. Pathol., 65:305-311, 1984].
All animals were given drinking water ad libitum. Rats which were given Halofuginone were fed Halofuginone in the normal rat diet at a concentration of 5 mg per kg diet weight for one week before surgery and for the duration of the experimental period, which was either 3 or 7 days after the surgical operation. Rats were sacrificed at the end of the experimental period. Both collagen content (through Sirius red staining) and collagen α1(I) gene expression were measured as described above in Example 1. In addition, serum alkaline phosphatase, alanine aminotransferase and aspartate aminotransferase levels were measured […] by a Hitachi Auto-analyzer System of Boerringher-Mannheim.

[8] = bile duct ligated rats fed Halofuginone vs bile duct ligation only
[9] = bile duct ligated rats, Halofuginone 5 mg per kg diet

Structure (SMILES): O=C(CC1NCCC[C@H]1O)Cn1cnc2cc(Br)c(Cl)cc2c1=O (some centres unmarked) [Halofuginone]
- pathological expression of smooth muscle actin by stellate cells (stellate cells [1]): significantly reduced
- toxicity (survival) ([2]; Halofuginone alone, 5 mg/kg diet, all six rats survived): no toxicity
- liver weight ([2]; rat, in vivo): 11 ± 1.5 g
- expression of collagen α1(I) gene in liver (in situ hybridization) ([2]; rats given 1% dimethylnitrosamine i.p. and Halofuginone 5 mg/kg diet, 3 weeks, compared to dimethylnitrosamine alone): marked reduction
- liver weight ([2]; rats given both Halofuginone and dimethylnitrosamine, dimethylnitrosamine alone 4.5 g and 5.0 g): 8.5 ± 1.7 g
- thickening of collagen bundles in liver (Sirius red staining) ([2]; rats given both dimethylnitrosamine and Halofuginone 5 mg/kg diet): markedly reduced
- rats died by the end of three weeks ([2]; rats given both dimethylnitrosamine and Halofuginone, four of six died with dimethylnitrosamine alone): one of the six
- reduction of fibrotic scores for liver ([3]; Halofuginone plus TAA vs TAA alone (prevention)): 43%
- effect on body weight ([3]; rat, in vivo): no effect
- effect on spleen weight ([3]; rat, in vivo): no effect
- thickening of collagen bundles in liver (Sirius red staining) ([3]; rats given both TAA (200 mg/kg i.p. twice weekly, 12 weeks) and Halofuginone 5 ppm in diet from three days before TAA): markedly reduced
- average double-blind liver fibrosis score ([3]; scale of 0-4, rats given both Halofuginone and TAA (prevention), TAA alone 2.16±0.7): 1.25±0.8
- synthesis of collagen type I in bone chondrocytes in vitro (collagen type I): inhibits
- pathological expression of smooth muscle actin by stellate cells (stellate cells [4]): prevented
- increased collagen α1(I) gene expression in liver ([5]; 0.25% dimethylnitrosamine plus Halofuginone): abolished
- dimethylnitrosamine-induced increase in liver hydroxyproline concentration ([5]; 0.25% dimethylnitrosamine, Halofuginone in diet): completely inhibited
- thickening of collagen bundles in liver (Sirius red staining) ([6]; Halofuginone given for four weeks after twelve weeks of TAA): markedly reduced
- average double-blind liver fibrosis score ([6]; scale of 0-4, group 3, Halofuginone after twelve weeks TAA, TAA alone 2.16±0.7 (group 1) or 3.06±1.7 (group 2)): 1.18±1.6
- bile duct ligation-induced increase in collagen synthesis [7, 8]: significantly reduced
- bile duct ligation-induced increase in collagen α1(I) gene expression [7, 8]: significantly reduced
- serum alanine aminotransferase, higher in rats not given Halofuginone than in rats fed Halofuginone [7, 9]: 56%
- serum alkaline phosphatase in rats not given Halofuginone relative to rats fed Halofuginone [7, 9]: 257%
- serum aspartate aminotransferase, higher in rats not given Halofuginone than in rats fed Halofuginone [7, 9]: 15%
